Blank lines part the entries; values can stand above or below the compound they belong to.
Tests used:
[1] = biological target: T1, Human IDO (Homo sapiens, UniProt P14902); test: IDO enzyme assay; assay type: biochemical; details: enzyme activity remaining at different inhibitor concentrations
T1 construct: purchased enzolifesciences ALX-201-333-C050
Procedure: The assays were performed at room temperature as described as literature reported with minor revision. […] In each well of 96 well-plate, 10 μL of Human IDO (0.05 mg/mL in KHPO4, 50 mM, PH 6.5) was added into 39 μL buffers (KHPO4, 50 mM, PH 6.5) and 1 μL inhibitor buffer in DMSO (2000, 600, 200, 60, 20, 6, 2, 0.6, 0.2 μM). Then, 50 μL the substrate buffer (4 mM L-tryptophan, 40 mM ascorbate, 20 μM methylene blue, 0.2 mg/mL catalase) was mixed into each well and incubated at 37° C. for 2 hours. Then, 10 μL of 6.1N trichloroacetic acid was mixed into each well and incubated at 52° C. for 30 min to hydrolyze N-formylkynurenine produced by IDO to kynurenine. The reaction mixture was incubated with 100 μL of 0.02 g/mL p-(dimethylamino)benzaldehyde in acetic acid at room temperature for 10 minutes. […] L-Kynurenine used as the standard, was prepared in a series of concentrations (1000, 500, 200, 100, 50, 20, 10 μM). The percent inhibition at individual concentrations was determined and the average values of duplicates were obtained. The data was processed using nonlinear regression to generate IC50 values (Prism Graphpad).

[2] = biological target: T2, IDO in IFN-γ induced HeLa cells (Homo sapiens, UniProt P14902); test: IDO Hela cells assay (kynurenine formation); assay type: cell-based; details: for IFN-γ induced IDO activity in HeLa cell lines inhibited by IDO inhibitors: FIG. 2
T2 construct: native IDO in HeLa cells; endogenous in cells; host or cells: HeLa cells stimulated with human IFN-γ
T2 sequence (P14902 whole entry): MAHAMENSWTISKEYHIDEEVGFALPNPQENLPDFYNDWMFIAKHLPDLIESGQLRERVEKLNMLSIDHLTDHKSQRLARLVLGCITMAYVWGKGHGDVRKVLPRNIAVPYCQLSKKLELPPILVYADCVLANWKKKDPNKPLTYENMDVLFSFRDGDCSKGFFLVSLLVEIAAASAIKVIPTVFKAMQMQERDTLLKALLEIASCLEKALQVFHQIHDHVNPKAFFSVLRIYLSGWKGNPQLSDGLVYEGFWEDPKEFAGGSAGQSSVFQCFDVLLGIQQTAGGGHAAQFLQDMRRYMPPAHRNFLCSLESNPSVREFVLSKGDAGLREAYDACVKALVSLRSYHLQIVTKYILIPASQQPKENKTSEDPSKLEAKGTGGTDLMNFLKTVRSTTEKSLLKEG
Procedure: Hela cells assay was carried out according to the reference (Takikawa, O., et al. (1988). “Mechanism of interferon-gamma action. Characterization of indoleamine 2,3-dioxygenase in cultured human cells induced by interferon-gamma and evaluation of the enzyme-mediated tryptophan degradation in its anticellular activity.” J Biol Chem 263(4):2041-2048; Yue, E. W., et al. (2009). “Discovery of potent competitive inhibitors of indoleamine 2,3-dioxygenase with in vivo pharmacodynamic activity and efficacy in a mouse melanoma model.” J Med Chem 52(23): 7364-7367) with minor modification. HeLa cells were routinely maintained in Earle's Minimum Essential Medium (EMEM) (ATCC 30-2003) and 10% fetal bovine serum. Cells were kept at 37° C. in a humidified incubator supplied with 5% CO2. The assay was performed as follows: HeLa cells were seeded in a 96 well culture plate at a density of 5×10^3 per well in 100 μL culture media. After grown overnight (16 h), human IFN-γ (50 ng/mL final concentration) and serial dilutions of compounds in 100 μL culture medium per well were added into cells. After an additional 48 hours of incubation, 140 μL of the supernatant per well was transferred to a new 96 well plate. Ten microliters of 6.1 N trichloroacetic acid were mixed into each well and incubated at 50° C. for 30 min to hydrolyze N-formylkynurenine produced by IDO to kynurenine. The reaction mixture was then centrifuged for 10 min at 2500 rpm to remove sediments. One hundred microliters of the supernatant per well were transferred to another 96 well plate and mixed with 100 μL of 2% (w/v) p-dimethylaminobenzaldehyde in acetic acid. The yellow color derived from kynurenine was measured at 492 nm using a SPECTRAmax 250 microplate reader. L-Kynurenine, used as the standard, was prepared in a series of concentrations (200, 100, 50, […], 12.5, 6.3, 3.2, 1.6 μM) in 100 μL HeLa cell culture media and analyzed in the same procedure. The percent inhibition at individual concentrations was determined and the average values of duplicates were obtained. The data was processed using nonlinear regression to generate IC50 values (Prism Graphpad).

[3] = test system: Hela tumor xenografts; test: MicroPET imaging of Hela tumor xenografts; assay type: in vivo, mice; details: for tracer accumulation in tumor: PET
Procedure: Female athymic C57BL/6 nude mice (4-6 weeks old) were ordered from Charles River Laboratories (Stone Ridge, N.Y., U.S.A.) and housed in a temperature and humidity controlled room. After 7 to 14 days of acclimatization, a total of 5×10^6 Hela cells were inoculated subcutaneously in 200 μL serum-free medium into the right flank of hind leg. Once tumors reach an appropriate size (3-4 mm in diameter) the mice were randomized into 5 groups (4/group). Then the mice in every group were randomized into two subgroups (rHu IFN-γ treatment or no rHu IFN-γ treatment). All the rHu IFN-γ treatment mice were injected i.p. of 1.5×10^5 U rHu IFN-γ/mouse/day. 24 h later, group one of mice were anesthetized by gas inhalation (2% vol/vol isoflurane in oxygen), then mice were euthanized and tumor tissues were dissected for further IDO western blotting and IHC in vitro. The same operation can be repeated at 48 h, 72 h, 96 h and 120 h points.
In order to evaluate the in vivo imaging performance of [^18F]IDO49 to IDO tumors, microPET imaging was performed on nude mice bearing Hela tumor xenografts both rHu IFN-γ treatment and none rHu IFN-γ treatment using the Inveon small-animal PET/CT scanner (Siemens). Anesthesia was induced with 4-5% isoflurane and maintained with 1-3% isofluorane delivered with a mixed air/oxygen through a closed nose cone throughout the PET imaging session. Mice bearing Hela tumor xenografts with rHu IFN-γ treatment were injected with 3.70-7.40 MBq (100-200 μCi) of [^18F]IDO49 in 200 μL of saline, and the baseline control mice with none rHu IFN-γ treatment was injected with the same radiotracer. PET data were collected for 90 min following radioligand administration and reconstructed into 38 dynamic frames of increasing length (6×10, 6×20, 4×30, 9×60, 2×180, 8×300, and 3×600 s). For a comparative study, [^11C]AMT PET imaging scan was also performed on Hela tumor mice at 60 min after intravenous injection of [^11C]AMT PET (3.7 MBq). The images were reconstructed and the regions of interest (ROIs) were drawn over the tumor and muscle, PET images were converted to percent injected dose per gram (%ID/g of tissue) for evaluation of tumor specificity. Image analysis was performed using the Inevon Research Workplace software.

[4] = test system: IFN-γ stimulated HeLa cells; test: Hela cell uptake of radioligands; assay type: cell-based, human
Procedure: HeLa cells were seeded in a 24 well culture plate at a density of 2×10^4 per well in 400 μL culture media w/FBS. After grown overnight (16 h), human IFN-γ (25 ng/well, 50 ng/mL final concentration) in 100 μL DMEM w/FBS were added into cells. The cells were rinsed with phosphate-buffered saline (PBS), and 500 μL of Earle's Minimum Essential Medium (EMEM) (ATCC 30-2003) and 10% fetal bovine serum was added to the culture wells. […] At each given time point, the cell supernatants were discard and wash the cells with PBS (0.5 mL) 3 times, the cells were subsequently lysed with 150 μL of trypsin-EDTA in each well and incubated for 5 min at 37° C., then collect the cell digestion solution and add another 150 μL of PBS into each well to collect the cells. All measurements were performed with a γ-counter (Wizard; PerkinElmer).
HeLa, PANCO2,HCT116 and 4T1 cells were selected and those cells were then cultured in the absence or presence of IFN-γ as described followed by Western Blotting to confirm IDO expression.

[5] = biological target: T3, IDO in IFN-γ stimulated HeLa cells (Homo sapiens, UniProt P14902); test: Competitive cell-binding assay; assay type: cell-based; details: blocking with INCB024360 and NLG919, FIG. 8
T3 construct: native IDO in HeLa cells; endogenous in cells; host or cells: HeLa cells stimulated with human IFN-γ
T3 sequence (P14902 whole entry): as above
Procedure: All measurements were performed with a γ-counter (Wizard; PerkinElmer). The specificities of radioligands were determined as percentage.

[6] = Lipophilicity determination (shake-flask, n-octanol/PBS pH 7.4); assay type: physicochemical; details: n-octanol/buffer pH 7.4, shake-flask
Procedure: [^18F]IDO49 (2-30 kBq in 30 μL of water) was added to a two-layer system of n-octanol (500 μL) and 0.1M phosphate buffered saline (PBS) pH 7.4 (500 μL) in an eppendorf vial. The vessel was vortexed for 3 min and then centrifuged at 10000 rpm for 2 min. An aliquot of each layer (100 μL) was assessed for radioactivity in a wiper counter. The partition coefficient (logD7.4) was calculated as the decimal logarithm of the ratio between the counted radioactivity in the n-octanol layer and the counted radioactivity in the aqueous layer. logD7.4=(Count of n-octanol sample−Count of background)/(Count of PBS sample−Count of background). CLogP (calculated LogP) values were determined using CHEMBIODRAW ULTRA 12.0 software (Cambridge soft. Perkin-Elmer, Waltham, Mass., USA).
LogD (n-octanol/buffer pH 7.4 partition coefficient) of [^18F]IDO49 was measured using the shake-flask method and the calculated LogP (cLogP, n-octanol/water partition coefficient) was determined using CHEMBIODRAW software.

[7] = in vivo; cited from earlier work
[8] = IFN-γ treatment Hela tumor mice

T1 sequence (P14902 whole entry): as above

- affinity of human IDO for compound [1]: higher affinity
- potency in HeLa cell-based assays compared with enzyme assays [2]: slightly more potent
- IFN-γ induced IDO activity in HeLa cell lines inhibited by IDO inhibitors [2]: inhibited
SMILES: Nc1nonc1C(=NO)Nc1ccc(F)c(Cl)c1 [IDO5L, 4-amino-N-(3-chloro-4-fluorophenyl)-N′-hydroxy-1,2,5-oxadiazole-3-carboximidamide, reference compound]

- affinity of human IDO for compound [1]: higher affinity
- potency in HeLa cell-based assays compared with enzyme assays [2]: slightly more potent
- IFN-γ induced IDO activity in HeLa cell lines inhibited by IDO inhibitors [2]: inhibited
SMILES: ON=C(Nc1ccc(F)c(Cl)c1)c1nonc1NCCF [IDO49]

- radioactive uptake in the kidney ([3]; 60 min dynamic scan): high
- tumor to muscle (T/M) relative uptake ratio, peak ([3]; 60 min post-injection, IFN-γ treatment Hela tumor mice): 2.29±0.05
- tracer accumulation in tumor [3, 8]: selectively accumulated
- average SUV of the tumor, IFN-γ treatment vs none treatment ([3]; summed images of dynamic microPET scans): higher than none treatment
- specific binding to IDO in vitro [5]: high specific binding
- logD7.4 [6]: 1.37±0.02
SMILES: ON=C(Nc1ccc(F)c(Cl)c1)c1nonc1NCC[18F] [[^18F]IDO49]
- retention in IDO expression Hela cell line ([4]; IFN-γ stimulation, different time points): retained at favorable levels

SMILES: C[C@](N)(Cc1c[nH]c2ccccc12)C(=O)O [[^11C]AMT, α-[^11C] methyl-L-tryptophan, reference compound]
- tracer accumulation in tumor [3, 8]: significant tracer accumulation

SMILES: Cn1cc(C[C@H](N)C(=O)O)c2ccccc21 [L-1-MT]
- inhibition of IDO activity (cell uptake of [18F]IDO5L) ([4]; Hela cells, 120 mins, FIG. 7B): strong inhibition

- logD7.4 [6]: 2.13±0.11
SMILES: Nc1nonc1C(=NO)Nc1ccc([18F])c(Cl)c1 [[^18F]IDO5L, [^18F] 4-amino-N-(3-chloro-4-fluorophenyl)-N′-hydroxy-1,2,5-oxadiazole-3-carboximidamide, reference compound]
- uptake in IFN-γ stimulated HeLa cells compared with other cell lines ([4]; all time points, PANCO2, HCT116, 4T1 as comparison): remarkably greater

SMILES: NS(=O)(=O)NCCNc1nonc1C(=NO)Nc1ccc(F)c(Br)c1 [INCB024360]
- clearance t1/2 [7]: < 30 min

Source: patent US20190185439A1, “RADIOFLUORINATED CARBOXIMIDAMIDES AS IDO TARGETING PET TRACER FOR CANCER IMAGING” (H. LEE MOFFITT CANCER CENTER & RESEARCH INSTITUTE, INC., priority 2016, published 2019)
